# From patent US11999747B2, “Furoquinolinediones as inhibitors of TDP2” (THE UNITED STATES OF AMERICA, AS REPRESENTED BY THE …, priority 2015, dated 2024)
# Assays:
# [1] = biological target: T1, human TDP2 (hTDP2) (Homo sapiens, UniProt O95551); test: Whole cell extract Tdp2 assay (DT40 TDP1-/- cells complemented with human TDP2); type: biochemical; conditions: whole cell extract 4 μg/mL of DT40 cells expressing hTDP2, 15 min, room temperature; read-out: WCE hTDP2
# T1 construct: expressed in transfected cells; host or cells: DT40 (chicken) TDP1-/- knockout cells complemented with human TDP2; whole cell extract
# T1 sequence (O95551 1-362): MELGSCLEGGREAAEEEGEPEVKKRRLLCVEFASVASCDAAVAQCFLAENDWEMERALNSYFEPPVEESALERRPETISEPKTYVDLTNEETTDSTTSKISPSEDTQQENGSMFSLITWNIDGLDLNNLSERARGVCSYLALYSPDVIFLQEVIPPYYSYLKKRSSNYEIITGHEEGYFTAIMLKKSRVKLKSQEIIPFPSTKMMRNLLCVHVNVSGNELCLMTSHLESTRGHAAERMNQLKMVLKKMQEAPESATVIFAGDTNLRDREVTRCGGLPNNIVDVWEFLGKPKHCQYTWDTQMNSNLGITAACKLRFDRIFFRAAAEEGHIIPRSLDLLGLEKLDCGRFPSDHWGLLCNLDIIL
# Experimental: DT40 knockout cells (1×10^7) for Tdp1 (TDP1−/−) complemented with human TDP2 (hTDP2) were collected, washed, and centrifuged. Cell pellets were then lysed and stored similarly to hTDP1 extracts (see above). The 18-mer single-stranded oligonucleotide was incubated at 1 nM with 4 μg/mL of whole cell extracts in the absence or presence of inhibitor for 15 min at room temperature in the WCE buffer containing 50 mM Tris HCl, pH 7.5, 80 mM KCl, 5 mM MgCl2, 2 mM EDTA, 1 mM DTT, 40 μg/mL BSA, and 0.01% Tween-20. Reactions were terminated by the addition of 1 volume of gel loading buffer [99.5% (v/v) formamide, 5 mM EDTA, 0.01% (w/v) xylene cyanol, and 0.01% (w/v) bromophenol blue]. Samples were then treated and run similarly to the hTDP1 whole cell extract (Example 51).
# (§1) All compounds were prepared by the methods shown in Examples 1 to 50. Routine changes in starting materials and reaction conditions, readily apparent to those of skill in the art, were used to make the particular compounds disclosed in Table 1. […] A standard Tdp2 inhibition assay, such as the assay of Example 53, is used to determine the IC50's for the compounds. LC methods are given in the General Methods section.
# [2] = biological target: T2, recombinant human TDP2 (Homo sapiens, UniProt O95551); test: Recombinant Tdp2 assay (gel-based, 18-mer ssDNA substrate); type: biochemical; conditions: recombinant human TDP2, 25 pM, 15 min, room temperature; read-out: REC TDP2
# T2 sequence (O95551 1-362): T1 sequence (O95551 1-362)
# Experimental: TDP2 reactions were carried out as described previously (Example 52) with the following modifications. The 18-mer single-stranded oligonucleotide DNA substrate (α^32P-cordycepin-3′-labeled) was incubated at 1 nM with 25 pM recombinant human TDP2 in the absence or presence of inhibitor for 15 min at room temperature in a buffer containing 50 mM Tris-HCl, pH 7.5, 80 mM KCl, 5 mM MgCl2, 0.1 mM EDTA, 1 mM DTT, 40 μg/mL BSA, and 0.01% Tween 20. Reactions were terminated and treated similarly to WCE and recombinant TDP1 reactions (see Examples 52 and 53).
# as §1
Compound,IC50 [1],IC50 [2]
COC(=O)c1sccc1OC(=O)c1c(C)oc2c1C(=O)c1ncccc1C2=O [Compound 62],1 to 12 µM,12 to 37 µM
COc1ccc(NC(=O)c2c(C)oc3c2C(=O)c2ncccc2C3=O)cc1 [Compound 19],,> 111 µM
CCOC(=O)c1c(C(Br)Br)oc2c1C(=O)c1ncccc1C2=O [Compound 74],,12 to 37 µM
CCOC(=O)c1c(CBr)oc2c1C(=O)c1ncccc1C2=O [Compound 63],1 to 12 µM,12 to 37 µM
O=C(Oc1ccc(OCCCN2CCOCC2)cc1)c1coc2c1C(=O)c1ncccc1C2=O [Compound 59],1 to 12 µM,37 to 111 µM
C#Cc1cccc(OC(=O)c2c(C)oc3c2C(=O)c2ncccc2C3=O)c1 [Compound 32],12 to 37 µM,37 to 111 µM
CC(C)(C)OC(=O)Nc1ccc(OC(=O)c2coc3c2C(=O)c2ncccc2C3=O)cc1 [Compound 69],,12 to 37 µM
CCOC(=O)C1=C(C)C(C(=O)OCC)C2=C1C(=O)c1ncccc1C2=O (centres unmarked) [Compound 4],,> 111 µM
Cc1oc2c(c1C(=O)Oc1cccc(-c3cn(CCCO)nn3)c1)C(=O)c1ncccc1C2=O [Compound 34],1 to 12 µM,1 to 12 µM
"CCOC(=O)c1c(-c2ccccc2)oc2c1C(=O)c1cccnc1C2=O [Compound 29, Ethyl 4,9-dioxo-2-phenyl-4,9-dihydrofuro[3,2-g]quinoline-3-carboxylate]",12 to 37 µM,37 to 111 µM
Cc1oc2c(c1C(=O)Oc1ccccc1O)C(=O)c1ncccc1C2=O [Compound 13],1 to 12 µM,12 to 37 µM
Cc1oc2c(c1C(=O)Oc1ccccc1OCCCN1CCOCC1)C(=O)c1ncccc1C2=O [Compound 60],1 to 12 µM,37 to 111 µM
Cc1oc2c(c1C(=O)Oc1cccc(Cl)c1)C(=O)c1ncccc1C2=O [Compound 23],1 to 12 µM,12 to 37 µM
C#CCCOC(=O)c1c(C)oc2c1C(=O)c1ncccc1C2=O [Compound 43],12 to 37 µM,12 to 37 µM
CCOC(=O)c1c2c(n(C)c1C)C(=O)c1ncccc1C2=O [Compound 5],,> 111 µM
Cc1oc2c(c1C(=O)Oc1cccc(O)c1)C(=O)c1ncccc1C2=O [Compound 12],1 to 12 µM,12 to 37 µM
Cc1oc2c(c1C(=O)Oc1cccc(C#N)c1)C(=O)c1ncccc1C2=O [Compound 26],1 to 12 µM,1 to 12 µM
Cc1oc2c(c1C(=O)Oc1cccnc1)C(=O)c1ncccc1C2=O [Compound 28],1 to 12 µM,1 to 12 µM
"CCOC(=O)c1c(C)oc2c1C(=O)c1cccnc1C2=O [Compound 1, Ethyl 2-methyl-4,9-dioxo-4,9-dihydrofuro[3,2-g]quinoline-3-carboxylate]",37 to 111 µM,37 to 111 µM

Compound,IC50 [1],IC50 [2]
CCOC(=O)c1noc2c1C(=O)c1ncccc1C2=O [Compound 73],,≤ 1 µM
CCOC(=O)c1c(CC)oc2c1C(=O)c1ncccc1C2=O [Compound 65],,37 to 111 µM
Cc1oc2c(c1C(=O)Oc1ccc(S(C)(=O)=O)cc1)C(=O)c1ncccc1C2=O [Compound 44],12 to 37 µM,12 to 37 µM
Cc1oc2c(c1C(=O)Oc1ccccc1Cl)C(=O)c1ncccc1C2=O [Compound 24],12 to 37 µM,1 to 12 µM
CCOC(=O)c1c(CC)oc2c1C(=O)c1ncccc1C2=O [Compound 66],,12 to 37 µM
Cc1oc2c(c1C(=O)OC[C@H]1COC(C)(C)O1)C(=O)c1ncccc1C2=O [Compound 38],1 to 12 µM,1 to 12 µM
Cc1oc2c(c1C(=O)Nc1cccc(Cl)c1)C(=O)c1ncccc1C2=O [Compound 17],,> 111 µM
CNC1=C(Cl)C(=O)c2ncccc2C1=O [Compound 6],,> 111 µM
Cc1oc2c(c1C(=O)OCCc1cn(CCC(=O)O)nn1)C(=O)c1ncccc1C2=O [Compound 42],12 to 37 µM,12 to 37 µM
Cc1oc2c(c1C(=O)OCCc1ccccc1)C(=O)c1ncccc1C2=O [Compound 40],12 to 37 µM,37 to 111 µM
Cc1oc2c(c1C(=O)OCCCO)C(=O)c1ncccc1C2=O [Compound 11],1 to 12 µM,12 to 37 µM
Cc1oc2c(c1C(=O)Nc1cccc(O)c1)C(=O)c1ncccc1C2=O [Compound 21],,> 111 µM
Cc1oc2c(c1C(=O)OCCCCO)C(=O)c1ncccc1C2=O [Compound 35],1 to 12 µM,12 to 37 µM
CC(=O)N1CCN(c2ccc(OC(=O)c3c(C)oc4c3C(=O)c3ncccc3C4=O)cc2)CC1 [Compound 61],1 to 12 µM,37 to 111 µM
COC(=O)c1c(C)oc2c1C(=O)c1ncccc1C2=O [Compound 41],1 to 12 µM,12 to 37 µM
Cc1oc2c(c1C(=O)OC[C@@H](O)CO)C(=O)c1ncccc1C2=O [Compound 37],12 to 37 µM,1 to 12 µM
CCNC(=O)c1c(C)oc2c1C(=O)c1ncccc1C2=O [Compound 20],,> 111 µM
C=CC(=O)Nc1cccc(OC(=O)c2c(C)oc3c2C(=O)c2ncccc2C3=O)c1 [Compound 67],,12 to 37 µM
"CC(=O)c1c(C)oc2c1C(=O)c1cccnc1C2=O [Compound 8, 3-acetyl-2-methylfuro[3,2-g]quinoline-4,9-dione]",,> 111 µM

Compound,IC50 [1],IC50 [2]
CCOC(=O)c1c(CN2CCN(C(C)=O)CC2)oc2c1C(=O)c1ncccc1C2=O [Compound 71],,12 to 37 µM
CCOC(=O)c1c(C(C)C)oc2c1C(=O)c1ncccc1C2=O [Compound 64],≤ 1 µM,12 to 37 µM
Cc1oc2c(c1C(=O)Nc1ccccc1)C(=O)c1ncccc1C2=O [Compound 16],,> 111 µM
"Cc1oc2c(c1C(=O)OCCO)C(=O)c1ncccc1C2=O [Compound 10, 2-hydroxyethyl-2-methyl-4,9-dioxo-4,9-dihydrofuro[2,3-g]quinoline-3-carboxylate]",1 to 12 µM,12 to 37 µM
Cc1oc2c(c1C(=O)Oc1ccc3ccccc3c1)C(=O)c1ncccc1C2=O [Compound 25],,> 111 µM
Cc1oc2c(c1C(=O)OCCOCCO)C(=O)c1ncccc1C2=O [Compound 36],12 to 37 µM,12 to 37 µM
"CCOC(=O)c1c(-c2ccccc2)oc2c1C(=O)c1ncccc1C2=O [Compound 30, Ethyl 4,9-dioxo-2-phenyl-4,9-dihydrofuro[2,3-g]quinoline-3-carboxylate]",12 to 37 µM,12 to 37 µM
"CCOC(=O)c1c(C)oc2c1C(=O)c1ncccc1C2=O [Compound 2, Ethyl 2-methyl-4,9-dioxo-4,9-dihydrofuro[2,3-g]quinoline-3-carboxylate]",12 to 37 µM,1 to 12 µM
"Cc1oc2c(c1C(=O)O)C(=O)c1ncccc1C2=O [Compound 7, 2-methyl-4,9-dioxo-4,9-dihydrofuro[2,3-g]quinoline-3-carboxylic acid]",37 to 111 µM,37 to 111 µM
Cc1oc2c(c1C(=O)Oc1ccccc1)C(=O)c1ncccc1C2=O [Compound 14],1 to 12 µM,12 to 37 µM
"CCOC(=O)c1c(C)oc2c1C(=O)c1ccccc1C2=O [Compound 3, Ethyl 2-methyl-4,9-dioxo-4,9-dihydronaphtho[2,3-b]furan-3-carboxylate]",,37 to 111 µM
C=CC(=O)Nc1ccc(OC(=O)c2c(C)oc3c2C(=O)c2ncccc2C3=O)cc1 [Compound 68],,12 to 37 µM
Cc1oc2c(c1C(=O)Oc1cccc(-c3cn(CCC(=O)O)nn3)c1)C(=O)c1ncccc1C2=O [Compound 33],12 to 37 µM,12 to 37 µM
Cc1oc2c(c1C(=O)Nc1ccccc1O)C(=O)c1ncccc1C2=O [Compound 18],,> 111 µM
"CC(=O)c1c(C)oc2c1C(=O)c1ncccc1C2=O [Compound 9, 3-acetyl-2-methylfuro[2,3-g]quinoline-4,9-dione]",37 to 111 µM,37 to 111 µM
Cc1oc2c(c1C(=O)Oc1ccc(Br)cc1)C(=O)c1ncccc1C2=O [Compound 31],12 to 37 µM,12 to 37 µM
Cc1oc2c(c1C(=O)OCC(O)CO)C(=O)c1ncccc1C2=O (centres unmarked) [Compound 15],1 to 12 µM,12 to 37 µM
Cc1oc2c(c1C(=O)Oc1ccc(N)cc1)C(=O)c1ncccc1C2=O [Compound 70],,1 to 12 µM
CCOC(=O)c1c(CN2CCOCC2)oc2c1C(=O)c1ncccc1C2=O [Compound 72],,1 to 12 µM
